From paper PMC3755734 (Angewandte Chemie (International ed. in English), 2011)
pIC50: −log10 of the molar value.

How the values were obtained:
Assay type in all cases: biochemical
CKIα = biological target: T1, CKIα (Homo sapiens, UniProt P48729); test: in vitro kinase assay
T1 sequence (P48729 2-337): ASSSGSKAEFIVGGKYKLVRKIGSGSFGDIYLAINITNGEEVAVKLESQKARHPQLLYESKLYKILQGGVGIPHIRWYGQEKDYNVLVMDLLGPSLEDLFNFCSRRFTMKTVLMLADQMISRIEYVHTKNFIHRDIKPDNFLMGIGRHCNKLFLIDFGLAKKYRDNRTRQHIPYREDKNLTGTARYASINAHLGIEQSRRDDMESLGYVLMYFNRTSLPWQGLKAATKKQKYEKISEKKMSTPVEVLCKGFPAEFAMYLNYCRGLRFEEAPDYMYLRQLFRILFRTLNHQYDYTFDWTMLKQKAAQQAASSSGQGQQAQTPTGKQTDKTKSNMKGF

CKIε = CKIε (Homo sapiens, UniProt P49674); test: in vitro kinase assay
Chain of CKIε (P49674 whole entry): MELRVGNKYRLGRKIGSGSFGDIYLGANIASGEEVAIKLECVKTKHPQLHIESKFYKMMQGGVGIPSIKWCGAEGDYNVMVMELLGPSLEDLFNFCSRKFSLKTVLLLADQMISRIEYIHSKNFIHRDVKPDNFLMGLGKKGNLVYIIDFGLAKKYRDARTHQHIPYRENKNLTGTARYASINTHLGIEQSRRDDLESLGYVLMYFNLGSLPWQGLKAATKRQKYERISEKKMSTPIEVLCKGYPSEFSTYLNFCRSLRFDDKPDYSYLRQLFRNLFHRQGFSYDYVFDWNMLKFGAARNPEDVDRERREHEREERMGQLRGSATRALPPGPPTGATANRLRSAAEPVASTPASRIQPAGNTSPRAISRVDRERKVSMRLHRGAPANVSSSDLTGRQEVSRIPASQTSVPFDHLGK

[1] = biological target: casein kinase 1 delta (CKIδ) (Homo sapiens, UniProt P48730); test: in vitro kinase assay IC50
Chain of casein kinase 1 delta (CKIδ) (P48730 whole entry): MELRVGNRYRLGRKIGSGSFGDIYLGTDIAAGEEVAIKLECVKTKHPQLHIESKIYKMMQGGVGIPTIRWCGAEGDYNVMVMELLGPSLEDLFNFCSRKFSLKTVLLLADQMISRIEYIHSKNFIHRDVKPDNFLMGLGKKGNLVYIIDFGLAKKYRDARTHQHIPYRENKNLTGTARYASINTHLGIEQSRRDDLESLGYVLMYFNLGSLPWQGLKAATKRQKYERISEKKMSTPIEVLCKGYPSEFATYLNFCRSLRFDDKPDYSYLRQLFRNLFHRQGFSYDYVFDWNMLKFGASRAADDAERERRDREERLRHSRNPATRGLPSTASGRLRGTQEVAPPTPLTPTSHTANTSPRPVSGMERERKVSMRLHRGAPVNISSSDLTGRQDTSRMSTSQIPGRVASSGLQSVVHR

`Cc1cc2sc(NC(=O)Cc3ccccc3)nc2cc1Cl` [LH846] gave a pIC50 (CKIα) of 5.60, a pIC50 (CKIε) of 5.89 and a pIC50 [1] of 6.54.
